Measurements as given in PubChem BioAssay (NCI).
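Five concentrations, 48 hours, 96-well plates. At the TGI there is no net growth.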

How the values were obtained:
Assay in all cases: NCI tumour cell line growth inhibition, 48 h
786-0 renal = system: 786-0 renal
A498 renal = system: A498 renal
A549 NSCLC = system: A549 NSCLC
ACHN renal = system: ACHN renal
CAKI-1 renal = system: CAKI-1 renal
CCRF-CEM leukemia = system: CCRF-CEM leukemia
COLO 205 colon = system: COLO 205 colon
DLD-1 colon = system: DLD-1 colon
DMS 114 small cell lung = system: DMS 114 small cell lung
DMS 273 small cell lung = system: DMS 273 small cell lung
EKVX NSCLC = system: EKVX NSCLC
HCC-2998 colon = system: HCC-2998 colon
HCT-116 colon = system: HCT-116 colon
HCT-15 colon = system: HCT-15 colon
HL-60(TB) leukemia = system: HL-60(TB) leukemia
HOP-62 NSCLC = system: HOP-62 NSCLC
HT29 colon = system: HT29 colon
IGROV1 ovarian = system: IGROV1 ovarian
K-562 leukemia = system: K-562 leukemia
KM12 colon = system: KM12 colon
LOX IMVI melanoma = system: LOX IMVI melanoma
LXFL 529 NSCLC = system: LXFL 529 NSCLC
M14 melanoma = system: M14 melanoma
M19-MEL melanoma = system: M19-MEL melanoma
MALME-3M melanoma = system: MALME-3M melanoma
MOLT-4 leukemia = system: MOLT-4 leukemia
NCI-H226 lung = system: NCI-H226 lung
NCI-H23 lung = system: NCI-H23 lung
NCI-H460 lung = system: NCI-H460 lung
NCI-H522 lung = system: NCI-H522 lung
OVCAR-3 ovarian = system: OVCAR-3 ovarian
OVCAR-4 ovarian = system: OVCAR-4 ovarian
OVCAR-8 ovarian = system: OVCAR-8 ovarian
RPMI-8226 leukemia = system: RPMI-8226 leukemia
SF-268 CNS = system: SF-268 CNS
SF-295 CNS = system: SF-295 CNS
SF-539 CNS = system: SF-539 CNS
SK-MEL-2 melanoma = system: SK-MEL-2 melanoma
SK-MEL-28 melanoma = system: SK-MEL-28 melanoma
SK-MEL-5 melanoma = system: SK-MEL-5 melanoma
SK-OV-3 ovarian = system: SK-OV-3 ovarian
SN12C renal = system: SN12C renal
SNB-19 CNS = system: SNB-19 CNS
SW-620 colon = system: SW-620 colon
U251 CNS = system: U251 CNS
UACC-257 melanoma = system: UACC-257 melanoma
UACC-62 melanoma = system: UACC-62 melanoma
UO-31 renal = system: UO-31 renal
XF 498 CNS = system: XF 498 CNS
HOP-92 NSCLC = system: HOP-92 NSCLC
KM20L2 colon = system: KM20L2 colon
OVCAR-5 ovarian = system: OVCAR-5 ovarian
RXF 393 renal = system: RXF 393 renal
SNB-75 CNS = system: SNB-75 CNS
SNB-78 CNS = system: SNB-78 CNS
TK-10 renal = system: TK-10 renal

Measured: TGI

CCOC(=O)CC[C@H](NC(=O)c1[nH]cnc1/N=N/N(C)C)C(=O)OCC
not listed: HOP-92 NSCLC | KM20L2 colon | OVCAR-5 ovarian | RXF 393 renal | SNB-75 CNS | SNB-78 CNS | TK-10 renal
> 100 µM: all other assays above

Clc1ccc(-c2nnc3c4nnc(-c5ccc(Cl)cc5Cl)n4c4ccccc4n23)c(Cl)c1
63.2 µM: SNB-75 CNS
not listed: HL-60(TB) leukemia | NCI-H226 lung
> 100 µM: all other assays above
